Format in all cases: cell-based
Assay [1] deals with Acinetobacter baumannii ATCC 19606. Description: MIC, microbroth dilution, standard strains. The conditions noted are these: ATCC19606, ATCC 19606, read-out: Minimum inhibitory concentration. The method, boiled down:
(§1)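 Microbroth dilution MIC; moxifloxacin positive control. Test cpds: pleuromutilin derivatives bearing a thiazole-pyridine benzyl quaternary ammonium side chain.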
In general terms: Dilution methods test growth across graded concentrations, often in twofold steps.

Assay [2] relates to methicillin-resistant Staphylococcus aureus ATCC 33591. In words: MIC, microbroth dilution, standard strains. Conditions: ATCC33591, ATCC 33591, read-out: Minimum inhibitory concentration. The essentials: as §1
Assay [3] has as its system Staphylococcus epidermidis ATCC 12228. Description: MIC, microbroth dilution, standard strains. Conditions: ATCC12228, ATCC 12228, read-out: Minimum inhibitory concentration. The method, boiled down: as §1
The test system of assay [4] is Escherichia coli ATCC 25922. In words: MIC, microbroth dilution, standard strains. Conditions: ATCC25922, ATCC 25922, read-out: Minimum inhibitory concentration. The essentials:
as §1

Assay [5] has as its system Escherichia coli CMCC 44103. Description: MIC, microbroth dilution, standard strains. The conditions noted are these: CMCC44103, CMCC 44103, read-out: Minimum inhibitory concentration. The method, boiled down:
as §1

In assay [6] the test system is Staphylococcus aureus ATCC 29213. In words: MIC, microbroth dilution, standard strains. The conditions noted are these: ATCC29213, ATCC 29213, read-out: Minimum inhibitory concentration. The method, boiled down: as §1
The test system of the next assay is Salmonella ATCC 14028. Description: MIC, microbroth dilution, standard strains. The conditions noted are these: ATCC14028, ATCC 14028, read-out: Minimum inhibitory concentration. The method, boiled down:
as §1

For assay [7], the system named is Staphylococcus aureus ATCC 25923. In words: MIC, microbroth dilution, standard strains. Conditions: ATCC25923, ATCC 25923, read-out: Minimum inhibitory concentration. The method, boiled down:
as §1

Assay [8] has as its system Mycoplasma hyorhini standard strain BTS-7 strain (Mhr-BTS-7; NCTC 10130). In words: Anti-mycoplasma activity assay, MIC. Conditions: NCTC10130. Here is the method: (§2) The minimum inhibitory concentration of the pleuromutilin derivative containing thiazole-pyridine benzyl quaternary ammonium salt side chain against different mycoplasmas was tested with tiamulin as (purchased from Shanghai Yuanye Bio-Technology Co., Ltd) a positive control using a microbroth dilution method, and the antibacterial effect of the compound against different mycoplasmas was evaluated.
(§3) Experimental strains include Mycoplasma hyopneumoniae standard strain J strain (Mhp-J; NCTC 10110), Mycoplasma hyopneumoniae clinical isolate LH strain (Mhp-LH), Mycoplasma hyorhini standard strain BTS-7 strain (Mhr-BTS-7; NCTC 10130), Mycoplasma gallisepticum R strain (MG-R) and Mycoplasma synoviae WVU1853 strain (MS-WVU1853; NCTC 10124) (purchased from National Collection of Type Cultures, United Kingdom).
(§4) The specific operation steps are as follows: • (1) preparation of KM2 medium: 38.9 g of KM2 medium (purchased from Guangdong Huankai Microbial Sci. & Tech. Co., Ltd.) was weighed, added to 800 mL of distilled water, boiled and dissolved, and autoclaved at 115° C. for 20 min for later use. • (2) preparation of bacterial liquid stock: 0.5 mL of each of Mycoplasma hyopneumoniae (Mhp), Mycoplasma hyorhina (Mhr), Mycoplasma gallisepticum (MG) and Mycoplasma synoviae (MS) was taken and transferred to 4.5 mL of KM2 liquid medium, and when the colour of the medium turned yellow, each of the bacteria was sub-packaged at 0.5 mL per tube, and stored as the bacterial liquid at −70° C. • (3) determination of bacterial liquid titre (colour change unit, CCU): 96-well plate method was used to measure the bacterial liquid titre. The preserved bacterial liquid stock was taken from −70° C., melt and equilibrated to room temperature. 0.18 mL of KM2 medium was added to each well of the middle 4 rows of the 96-well plate (that is, 4 parallels), 0.02 mL of the bacterial liquid stock was taken and added to the wells of the first column, respectively, and subjected to 10-fold dilution until 10^−11. A negative control containing only KM2 medium was set (column 12). The plate was sealed and put into an incubator at 37° C., and the results were observed day by day. The highest dilution at which the colour of the medium can change was the CCU/mL of the strain. • (4) determination of MIC: the minimum inhibitory concentration of the compound against mycoplasmas was determined by a microbroth dilution method. Each drug to be tested was prepared as a stock solution with a concentration of 2560 μg/mL, and each drug stock solution was 2-fold diluted with KM2 liquid medium, and the test concentration range was 0.015-128 μg/mL (large concentration gradient) and 0.000004-0.06 μg/mL (small concentration gradient). An appropriate amount of seed bacterial liquid was taken and diluted to 10^4 CCU/mL serially according to its titre. Drugs of various dilutions were added sequentially to the 96-well plate, and then an equal amount of diluted bacterial liquid was added. 200 μL of diluted mycoplasma liquid was set as a positive control, 200 μL of KM2 liquid culture medium was set as a negative control, and a solvent control group (10 μL of drug solvent+190 μL of mycoplasma liquid) was also set. Three parallels were set for each experiment. After all the culture plates were sealed, they were allowed to culture at 37° C. and observed daily, and the final MIC values were recorded. (See FIG. 22 for the MIC determination results of the representative compound 7 against 5 mycoplasma strains)

Assay [9] concerns Mycoplasma hyopneumoniae clinical isolate LH strain (Mhp-LH). In words: Anti-mycoplasma activity assay, MIC. Conditions: Mesomycoplasma hyopneumoniae. The protocol:
as §2, §3, §4

For assay [10], the system named is Mycoplasma synoviae WVU1853 strain (MS-WVU1853; NCTC 10124). Description: Anti-mycoplasma activity assay, MIC. The conditions noted are these: Mycoplasmopsis synoviae, NCTC10124. Here is the method:
as §2, §3, §4

Assay [11] has as its system Mycoplasma gallisepticum R strain (MG-R). Description: Anti-mycoplasma activity assay, MIC. Conditions: Mycoplasmoides gallisepticum. The protocol:
as §2, §3, §4

Assay [12] has as its system Mycoplasma hyopneumoniae standard strain J strain (Mhp-J; NCTC 10110). Description: Anti-mycoplasma activity assay, MIC. The conditions noted are these: Mesomycoplasma hyopneumoniae, NCTC10110. The protocol: as §2, §3, §4

Values after ≈ are worked out from the molar mass of the structure shown. A value given as a limit tells only on which side of the number the result lay.

On to `C=C[C@]1(C)C[C@@H](OC(=O)CSCCN(CC)CC)[C@]2(C)[C@H](C)CC[C@]3(CCC(=O)[C@H]32)[C@@H](C)[C@@H]1O` [Tiamulin, tiamulin, reference compound], for which the MIC in assay [1] was 64 µg/mL (≈ 130 µM); in assay [2], 128 µg/mL (≈ 259 µM); in [3] it was 16 µg/mL (≈ 32.4 µM); in assay [4], 128 µg/mL (≈ 259 µM); in [5] it was 64 µg/mL (≈ 130 µM); in assay [6], above 128 µg/mL. In addition, the MIC in the assay with Salmonella ATCC 14028 stood at 128 µg/mL (≈ 259 µM); in assay [7], 64 µg/mL (≈ 130 µM); in assay [8], 0.03 µg/mL (≈ 0.0608 µM); in [9], 0.015 µg/mL (≈ 0.0304 µM); in assay [10] it was 2 µg/mL (≈ 4.05 µM); in assay [11], 0.125 µg/mL (≈ 0.253 µM). This molecule gave an MIC in assay [12] of 0.03 µg/mL (≈ 0.0608 µM).

Source of the values: patent US12384771B2, “Pleuromutilin derivative containing thiazole-pyridine benzyl quaternary ammonium salt side chain and preparation method and use thereof” (SHAANXI UNIVERSITY OF SCIENCE AND TECHNOLOGY, priority 2022, dated 2025).
